# Positions count from the first letter of the chain named.
# Tests used:
# Assay in all cases: isothermal titration calorimetry
# Type in all cases: binding
# AaLpxC [1] = target: T1, AaLpxC (Aquifex aeolicus, UniProt O67648, S59A)
# T1 construct: gene lpxC; codon-optimised gene in pET-21a (NdeI/XhoI), E. coli BL21(DE3); approx. 32 kDa; Zn2+ enzyme; last five residues LTRLE disordered in crystal
# T1 sequence (O67648 1-271 S59A): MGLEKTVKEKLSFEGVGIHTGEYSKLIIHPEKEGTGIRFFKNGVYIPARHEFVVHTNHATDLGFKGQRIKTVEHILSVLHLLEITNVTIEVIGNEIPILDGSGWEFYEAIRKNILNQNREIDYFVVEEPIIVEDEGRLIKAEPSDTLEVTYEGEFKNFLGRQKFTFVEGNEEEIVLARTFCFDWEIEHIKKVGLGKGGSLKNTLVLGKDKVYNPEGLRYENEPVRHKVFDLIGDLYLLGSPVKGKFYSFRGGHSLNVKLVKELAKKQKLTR
# Text: (§1) isothermal titration calorimetry on AaLpxC
# AaLpxC [2] = target: T2, AaLpxC (Aquifex aeolicus, UniProt O67648, T203A)
# T2 construct: gene lpxC; codon-optimised gene in pET-21a (NdeI/XhoI), E. coli BL21(DE3); approx. 32 kDa; Zn2+ enzyme; last five residues LTRLE disordered in crystal
# T2 sequence (O67648 1-271 T203A): T1 sequence (O67648 1-271 S59A) with A59S, T203A
# Text: as §1
# AaLpxC [3] = target: T3, AaLpxC (Aquifex aeolicus, UniProt O67648, H19A)
# T3 construct: gene lpxC; codon-optimised gene in pET-21a (NdeI/XhoI), E. coli BL21(DE3); approx. 32 kDa; Zn2+ enzyme; last five residues LTRLE disordered in crystal
# T3 sequence (O67648 1-271 H19A): T1 sequence (O67648 1-271 S59A) with H19A, A59S
# Text: as §1
# AaLpxC [4] = target: T4, AaLpxC (Aquifex aeolicus, UniProt O67648, K227A)
# T4 construct: gene lpxC; codon-optimised gene in pET-21a (NdeI/XhoI), E. coli BL21(DE3); approx. 32 kDa; Zn2+ enzyme; last five residues LTRLE disordered in crystal
# T4 sequence (O67648 1-271 K227A): T1 sequence (O67648 1-271 S59A) with A59S, K227A
# Text: as §1
# AaLpxC [5] = target: T5, AaLpxC (Aquifex aeolicus, UniProt O67648, I189A)
# T5 construct: gene lpxC; codon-optimised gene in pET-21a (NdeI/XhoI), E. coli BL21(DE3); approx. 32 kDa; Zn2+ enzyme; last five residues LTRLE disordered in crystal
# T5 sequence (O67648 1-271 I189A): T1 sequence (O67648 1-271 S59A) with A59S, I189A
# Text: as §1
# AaLpxC [6] = target: T6, AaLpxC (Aquifex aeolicus, UniProt O67648, I186A)
# T6 construct: gene lpxC; codon-optimised gene in pET-21a (NdeI/XhoI), E. coli BL21(DE3); approx. 32 kDa; Zn2+ enzyme; last five residues LTRLE disordered in crystal
# T6 sequence (O67648 1-271 I186A): T1 sequence (O67648 1-271 S59A) with A59S, I186A
# Text: as §1
# AaLpxC [7] = target: T7, AaLpxC (Aquifex aeolicus, UniProt O67648, E73A)
# T7 construct: gene lpxC; codon-optimised gene in pET-21a (NdeI/XhoI), E. coli BL21(DE3); approx. 32 kDa; Zn2+ enzyme; last five residues LTRLE disordered in crystal
# T7 sequence (O67648 1-271 E73A): T1 sequence (O67648 1-271 S59A) with A59S, E73A
# Text: as §1
# AaLpxC [8] = target: T8, AaLpxC (Aquifex aeolicus, UniProt O67648, F180A)
# T8 construct: gene lpxC; codon-optimised gene in pET-21a (NdeI/XhoI), E. coli BL21(DE3); approx. 32 kDa; Zn2+ enzyme; last five residues LTRLE disordered in crystal
# T8 sequence (O67648 1-271 F180A): T1 sequence (O67648 1-271 S59A) with A59S, F180A
# Text: as §1
# AaLpxC [9] = target: T9, AaLpxC (Aquifex aeolicus, UniProt O67648, I18A)
# T9 construct: gene lpxC; codon-optimised gene in pET-21a (NdeI/XhoI), E. coli BL21(DE3); approx. 32 kDa; Zn2+ enzyme; last five residues LTRLE disordered in crystal
# T9 sequence (O67648 1-271 I18A): T1 sequence (O67648 1-271 S59A) with I18A, A59S
# Text: as §1
# AaLpxC [10] = target: T10, AaLpxC (Aquifex aeolicus, UniProt O67648, E185A)
# T10 construct: gene lpxC; codon-optimised gene in pET-21a (NdeI/XhoI), E. coli BL21(DE3); approx. 32 kDa; Zn2+ enzyme; last five residues LTRLE disordered in crystal
# T10 sequence (O67648 1-271 E185A): T1 sequence (O67648 1-271 S59A) with A59S, E185A
# Text: as §1
# AaLpxC [11] = target: T11, AaLpxC (Aquifex aeolicus, UniProt O67648)
# T11 construct: gene lpxC; codon-optimised gene in pET-21a (NdeI/XhoI), E. coli BL21(DE3); approx. 32 kDa; Zn2+ enzyme; last five residues LTRLE disordered in crystal
# T11 sequence (O67648 1-271): T1 sequence (O67648 1-271 S59A) with A59S
# Text: as §1
smiles,measurement,setting,value
CC(C)(N)[C@H](NC(=O)c1ccc(C#CC#C[C@@H]2C[C@H]2CO)cc1)C(=O)NO [ACHN-975],Kd,AaLpxC [1],400 ± 100 nM
same,Kd,AaLpxC [2],2000 ± 1400 nM
same,Kd,AaLpxC [3],400 ± 200 nM
same,Kd,AaLpxC [4],100 ± 80 nM
same,Kd,AaLpxC [5],100 ± 90 nM
same,Kd,AaLpxC [6],200 ± 90 nM
same,Kd,AaLpxC [7],70 ± 50 nM
same,Kd,AaLpxC [8],90 ± 70 nM
same,Kd,AaLpxC [9],400 ± 300 nM
same,Kd,AaLpxC [10],60 ± 30 nM
same,Kd,AaLpxC [11],400 ± 100 nM

# Source: PMC7962117, “The Complex Structure of Protein AaLpxC from Aquifex aeolicus with ACHN-975 Molecule Suggests an Inhibitory Mechanism at Atomic-Level against Gram-Negative Bacteria” (Molecules, 2021)
